Results from BindingDB's records for PubMed 37235998 (Nanjing University of Chinese Medicine).

Assays:
[1] = biological target: Isocitrate dehydrogenase [NADP] cytoplasmic (Homo sapiens, UniProt O75874); assay: Inhibition of N-terminal His-tagged human recombinant IDH1 R132H mutant (1 to 414) expressed in Sf9 incubated for 60 mins by size-exclusion chromatography analysis
[2] = biological target: T1, Isocitrate dehydrogenase [NADP], mitochondrial (Homo sapiens, UniProt P48735); assay: Inhibition of N-terminal His-tagged human recombinant IDH2 R140Q mutant (41 to 452) expressed in baculovirus system incubated for 60 mins by size-exclusion chromatography analysis
T1 sequence (P48735 whole entry): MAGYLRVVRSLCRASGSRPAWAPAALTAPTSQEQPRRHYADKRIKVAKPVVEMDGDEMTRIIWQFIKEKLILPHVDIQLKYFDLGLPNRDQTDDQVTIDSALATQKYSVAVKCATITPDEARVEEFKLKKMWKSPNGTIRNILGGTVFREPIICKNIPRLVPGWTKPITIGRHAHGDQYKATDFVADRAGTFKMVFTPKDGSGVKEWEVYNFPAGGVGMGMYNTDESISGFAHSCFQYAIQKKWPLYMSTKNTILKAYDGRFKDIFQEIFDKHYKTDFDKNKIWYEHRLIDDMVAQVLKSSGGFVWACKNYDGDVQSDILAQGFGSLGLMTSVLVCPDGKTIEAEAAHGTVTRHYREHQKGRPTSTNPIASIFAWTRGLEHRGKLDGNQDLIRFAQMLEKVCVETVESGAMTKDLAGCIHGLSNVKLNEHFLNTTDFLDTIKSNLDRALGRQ

Isocitrate dehydrogenase [NADP] cytoplasmic, sequence (O75874 2-414 R132H limits assumed): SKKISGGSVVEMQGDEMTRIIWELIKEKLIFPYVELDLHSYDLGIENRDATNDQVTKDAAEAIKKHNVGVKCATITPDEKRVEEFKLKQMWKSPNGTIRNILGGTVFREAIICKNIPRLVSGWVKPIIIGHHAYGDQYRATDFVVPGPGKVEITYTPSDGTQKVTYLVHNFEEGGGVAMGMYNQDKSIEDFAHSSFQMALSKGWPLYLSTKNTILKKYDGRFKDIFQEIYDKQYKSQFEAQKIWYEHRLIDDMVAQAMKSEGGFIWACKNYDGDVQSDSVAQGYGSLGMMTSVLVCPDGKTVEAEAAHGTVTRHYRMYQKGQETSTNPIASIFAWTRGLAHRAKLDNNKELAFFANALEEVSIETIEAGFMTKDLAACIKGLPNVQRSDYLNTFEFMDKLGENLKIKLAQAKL

Structure (SMILES) | IC50 [1] | IC50 [2]
FC1(F)CCC(Nc2nc(NC3Cc4ccccc4C3)nc(-c3cccc(C(F)(F)F)n3)n2)C1 (stereo not drawn) [US10028961, Compound 152] | < 50 nM | < 50 nM
C[C@@H](Nc1nc(Nc2ccnc(C3(C#N)CC3)c2)nc(-c2cccc(C(F)(F)F)n2)n1)C(F)(F)F [US10028961, Compound 352] | – | < 50 nM
